Data on seven molecules can be found in patent US20040192771A1, “Ether compounds and compositions for cholesterol management and related uses” (priority 2001, published 2004).

For one assay, the system named is primary rat hepatocytes. As to the kind of experiment: Inhibition of lipid synthesis ([1-14C]-acetate incorporation) in primary cultures of rat hepatocytes. It counts as cell-based. The settings on record: Hepatocyte, total lipid synthesis, 4 hours incubation. The method, then:
Compounds were tested for inhibition of lipid synthesis in primary cultures of rat hepatocytes. Male Sprague-Dawley rats were anesthetized with intraperitoneal injection of sodium pentobarbital (80 mg/kg). Rat hepatocytes were isolated essentially as described by the method of Seglen (Seglen, P. O. Hepatocyte suspensions and cultures as tools in experimental carcinogenesis. J. Toxicol. Environ. Health 1979, 5, 551-560). Hepatocytes were suspended in Dulbecco's Modified Eagles Medium containing 25 mM D-glucose, 14 mM HEPES, 5 mM L-glutamine, 5 mM leucine, 5 mM alanine, 10 mM lactate, 1 mM pyruvate, 0.2% bovine serum albumin, 17.4 mM non-essential amino acids, 20% fetal bovine serum, 100 nM insulin and 20 μg/mL gentamycin) and plated at a density of 1.5×10^5 cells/cm^2 on collagen-coated 96-well plates. Four hours after plating, media was replaced with the same media without serum. Cells were grown overnight to allow formation of monolayer cultures. Lipid synthesis incubation conditions were initially assessed to ensure the linearity of [1-^14C]-acetate incorporation into hepatocyte lipids for up to 4 hours. Hepatocyte lipid synthesis inhibitory activity was assessed during incubations in the presence of 0.25 μCi [1-^14C]-acetate/well (final radiospecific activity in assay is 1 Ci/mol) and 0, 1, 3, 10, 30, 100 or 300 μM of compounds for 4 hours. At the end of the 4-hour incubation period, medium was discarded and cells were washed twice with ice-cold phosphate buffered saline and stored frozen prior to analysis. To determine total lipid synthesis, 170 μl of MicroScint-E® and 50 μl water was added to each well to extract and partition the lipid soluble products to the upper organic phase containing the scintillant. Lipid radioactivity was assessed by scintillation spectroscopy in a Packard TopCount NXT.

The subject of another assay is obese female Zucker rats. As to the kind of experiment: Oral daily treatment of obese female Zucker rats for fourteen days; serum lipids and glycemic control indicators. It counts as in vivo. To be noted: Rattus norvegicus, percent change from study prebleed; for change in vivo at 90 mg/kg/day: 90 mg/kg/day oral; for change in vivo at 100 mg/kg/day: 100 mg/kg/day oral; for change in vivo at 30 mg/kg/day: 30 mg/kg/day oral. The method, then: In a number of different experiments, illustrative compounds of the invention are administered daily at a dose of up to 100 mg/kg to chow fed obese female Zucker rats for fourteen days in the morning by oral gavage in 1.5% carboxymethylcellulose/0.2% Tween 20 or 20% ethanol/80% polyethylene glycol (dosing vehicles). Animals are weighed daily. Animals are allowed free access to rodent chow and water throughout the study except on days of blood sampling where food is restricted for six hours prior to blood sampling. Blood glucose is determined after the 6 hour fast in the afternoon without anesthesia from a tail vein. Serum is also prepared from pretreatment blood samples subsequently obtained from the orbital venous plexus (with O2/CO2 anesthesia) and following the fourteenth dose at sacrifice from the heart following O2/CO2 anesthesia. Serums are assayed for lipoprotein cholesterol profiles, triglycerides, total cholesterol, Non HDL cholesterol, HDL cholesterol, the ratio of HDL cholesterol to that of Non HDL cholesterol, insulin, non esterified fatty acids, and beta hydroxy butyric acid. The percent body weight gain and the ratio of liver to body weight is also determined. These are shown as absolute values or as a percent change of the pretreatment values in Table C. [drawing 479] [drawing 480]

The mark [1] stands for this setting: 168 h, week 1, read-out: Glucose.
The mark [2] stands for this setting: 168 h, week 1, read-out: Insulin.
The mark [3] stands for this setting: 168 h, week 1, read-out: Non-HDL-C.
[4] abbreviates: 336 h, week 2, read-out: Glucose.
The mark [5] stands for this setting: 336 h, week 2, read-out: Insulin.
[6] abbreviates: 336 h, week 2, read-out: Non-HDL-C.

Read-outs that look alike come from different tables or passages of the source.

In general, IC50 refers to the concentration that inhibits the measured activity by half. Low values mean higher potency, high ones lower potency.

In the assay with primary rat hepatocytes, `CC(C)(CO)Cc1cccc(Oc2cccc(CC(C)(C)CO)c2)c1` [Compound 136, 3-{3-[3-(3-Hydroxy-2,2-dimethylpropyl)-phenoxy]-phenyl}-2,2-dimethylpropan-1-ol] yielded a concentration for half-maximal inhibition (IC50) of 98 µM. Also, the change in vivo at 90 mg/kg/day was -20% in the assay with obese female Zucker rats (setting [1]); 22% with obese female Zucker rats (168 h, week 1, read-out: HDL-C); -57% in the assay with obese female Zucker rats (setting [2]); -12% in the assay on obese female Zucker rats (setting [3]); 1% with obese female Zucker rats (168 h, week 1, read-out: TC); 13% in the assay on obese female Zucker rats (168 h, week 1, read-out: TG). Further, the change in vivo at 90 mg/kg/day in the assay on obese female Zucker rats (setting [4]) is -3%; in the assay on obese female Zucker rats (336 h, week 2, read-out: HDL-C) it was -4%; in the assay with obese female Zucker rats (setting [5]), -45%; with obese female Zucker rats (setting [6]) it was 23%; with obese female Zucker rats (336 h, week 2, read-out: TC) it was 9%; in the assay on obese female Zucker rats (336 h, week 2, read-out: TG), 18%.

In the assay with primary rat hepatocytes, `CC(C)(CO)CCCCOCCCC(C)(C)CO` [Compound 126, 6-(5-Hydroxy-4,4-dimethylpentyloxy)-2,2-dimethylhexan-1-ol] returned an IC50 of 17 µM. The change in vivo at 100 mg/kg/day in the assay on obese female Zucker rats (setting [1]) was 68%; in the assay with obese female Zucker rats (168 h, week 1, read-out: HDL-C), 630%; in the assay with obese female Zucker rats (setting [2]), 240%; in the assay with obese female Zucker rats (setting [3]), -28%; in the assay with obese female Zucker rats (168 h, week 1, read-out: TC), 119%; in the assay on obese female Zucker rats (168 h, week 1, read-out: TG), -63%. For the same molecule, the change in vivo at 100 mg/kg/day in the assay with obese female Zucker rats (setting [4]) is 9%; with obese female Zucker rats (336 h, week 2, read-out: HDL-C), 786%; in the assay with obese female Zucker rats (setting [5]), 145%; with obese female Zucker rats (setting [6]) it was -17%; in the assay with obese female Zucker rats (336 h, week 2, read-out: TC) it was 161%; with obese female Zucker rats (336 h, week 2, read-out: TG), -58%.

On to `CC(C)(CO)CCCCOCCCCC(C)(CO)c1ccccc1` (stereo not shown) [Compound 129, 6-(6-Hydroxy-5-methyl-5-phenylhexyloxy)-2,2-dimethyl-hexan-1-ol], for which the IC50 in the assay with primary rat hepatocytes came out at 4.7 µM. The change in vivo at 100 mg/kg/day was 14% in the assay with obese female Zucker rats (setting [1]); 26% in the assay with obese female Zucker rats (168 h, week 1, read-out: HDL-C); 2% in the assay on obese female Zucker rats (setting [2]); -55% in the assay with obese female Zucker rats (setting [3]); -6% in the assay with obese female Zucker rats (168 h, week 1, read-out: TC); -61% with obese female Zucker rats (168 h, week 1, read-out: TG). Moreover, the change in vivo at 100 mg/kg/day was 4% in the assay on obese female Zucker rats (setting [4]); 52% with obese female Zucker rats (336 h, week 2, read-out: HDL-C); 6% with obese female Zucker rats (setting [5]); -13% in the assay on obese female Zucker rats (setting [6]); 26% in the assay with obese female Zucker rats (336 h, week 2, read-out: TC); -45% with obese female Zucker rats (336 h, week 2, read-out: TG).

In turn, `CC(C)(CO)CCCCCOCCCCC(C)(C)CO` [Compound 130, 7-(6-Hydroxy-5,5-dimethylhexyloxy)-2,2-dimethylheptan-1-ol] came in with an IC50 in the assay with primary rat hepatocytes of 8.4 µM. The change in vivo at 30 mg/kg/day in the assay with obese female Zucker rats (setting [1]) was 6%; with obese female Zucker rats (168 h, week 1, read-out: HDL-C), 71%; with obese female Zucker rats (setting [2]), 25%; in the assay on obese female Zucker rats (setting [3]), -26%; in the assay with obese female Zucker rats (168 h, week 1, read-out: TC), 41%; in the assay with obese female Zucker rats (168 h, week 1, read-out: TG), -66%. The change in vivo at 30 mg/kg/day in the assay on obese female Zucker rats (setting [4]) was 6%; with obese female Zucker rats (336 h, week 2, read-out: HDL-C) it was 105%; with obese female Zucker rats (setting [5]), 13%; in the assay on obese female Zucker rats (setting [6]) it was 17%; in the assay on obese female Zucker rats (336 h, week 2, read-out: TC), 77%; in the assay on obese female Zucker rats (336 h, week 2, read-out: TG), -47%.

On to `CC(CO)(CCCOCCCC(C)(CO)c1ccccc1)c1ccccc1` (stereo not shown) [Compound 110, 5-(5-Hydroxy-4-methyl-4-phenylpentyloxy)-2-methyl-2-phenylpentan-1-ol], for which, in the assay with primary rat hepatocytes, half-maximal inhibition (IC50) was put at 143 µM. In addition, the change in vivo at 100 mg/kg/day in the assay on obese female Zucker rats (setting [1]) was 12%; in the assay with obese female Zucker rats (168 h, week 1, read-out: HDL-C), 7%; in the assay with obese female Zucker rats (setting [2]), -2%; in the assay with obese female Zucker rats (setting [3]), -32%; with obese female Zucker rats (168 h, week 1, read-out: TC), -4%; with obese female Zucker rats (168 h, week 1, read-out: TG), -27%. Also, the change in vivo at 100 mg/kg/day with obese female Zucker rats (setting [4]) is 10%; in the assay on obese female Zucker rats (336 h, week 2, read-out: HDL-C), 5%; in the assay with obese female Zucker rats (setting [5]) it was -6%; with obese female Zucker rats (setting [6]), -26%; in the assay on obese female Zucker rats (336 h, week 2, read-out: TC), -4%; in the assay with obese female Zucker rats (336 h, week 2, read-out: TG), -18%.

`CC(C)(CO)CCCOCCOCCCC(C)(C)CO` [Compound 149, 5-[2-(5-Hydroxy-4,4-dimethylpentyloxy)-ethoxy]-2,2-dimethylpentan-1-ol]: the change in vivo at 30 mg/kg/day in the assay on obese female Zucker rats (setting [1]) is -20%; in the assay with obese female Zucker rats (168 h, week 1, read-out: HDL-C), 37%; with obese female Zucker rats (setting [2]), -40%; in the assay with obese female Zucker rats (setting [3]), -48%; in the assay on obese female Zucker rats (168 h, week 1, read-out: TC), -7%; with obese female Zucker rats (168 h, week 1, read-out: TG) it was -37%. The change in vivo at 30 mg/kg/day in the assay with obese female Zucker rats (setting [4]) is -27%; with obese female Zucker rats (336 h, week 2, read-out: HDL-C), 17%; in the assay with obese female Zucker rats (setting [5]), -26%; with obese female Zucker rats (setting [6]), -27%; in the assay on obese female Zucker rats (336 h, week 2, read-out: TC) it was -7%; with obese female Zucker rats (336 h, week 2, read-out: TG), -30%.

In the case of `CC(CO)(CCCCOCCCC(C)(CO)c1ccccc1)c1ccccc1` (stereo not shown) [Compound 127, 6-(5-Hydroxy-4-methyl-4-phenylpentyloxy)-2-methyl-2-phenylhexan-1-ol], the change in vivo at 30 mg/kg/day with obese female Zucker rats (setting [1]) was 5%; in the assay with obese female Zucker rats (168 h, week 1, read-out: HDL-C), -2%; in the assay with obese female Zucker rats (setting [2]), 3%; in the assay with obese female Zucker rats (168 h, week 1, read-out: TC), 3%; in the assay with obese female Zucker rats (168 h, week 1, read-out: TG), 0%; in the assay with obese female Zucker rats (setting [4]), -3%. The change in vivo at 30 mg/kg/day is -20% in the assay on obese female Zucker rats (336 h, week 2, read-out: HDL-C); 0% in the assay on obese female Zucker rats (setting [5]); 45% with obese female Zucker rats (setting [6]); 2% with obese female Zucker rats (336 h, week 2, read-out: TC); 21% with obese female Zucker rats (336 h, week 2, read-out: TG).
